Several values for one entry are separate records, joined by “and”; a condition that tells them apart may be missing. Identical values can stand only once.
Conditions: Liquid

CCCCCCCCCC(=O)OC [methyl decanoate]
Conditions | vapor or sublimation pressure
273.35 K | 0.0004731 kPa
273.84 K | 0.0004984 kPa
274.32 K | 0.0005246 kPa
274.8 K | 0.0005538 kPa
275.29 K | 0.0005879 kPa
275.77 K | 0.0006152 kPa
276.26 K | 0.0006487 kPa
276.74 K | 0.0006849 kPa
277.23 K | 0.0007225 kPa
277.71 K | 0.0007597 kPa
278.2 K | 0.0008032 kPa
278.69 K | 0.0008442 kPa
279.18 K | 0.0008873 kPa
279.66 K | 0.0009341 kPa
280.15 K | 0.0009819 kPa
280.64 K | 0.001035 kPa
281.12 K | 0.001093 kPa
281.47 K | 0.001128 kPa
282.96 K | 0.001314 kPa
283.48 K | 0.001386 kPa
284.46 K | 0.001532 kPa
284.96 K | 0.001613 kPa
285.43 K | 0.001692 kPa
285.64 K | 0.00173 kPa
285.74 K | 0.001743 kPa
285.95 K | 0.001776 kPa
286.44 K | 0.001869 kPa
286.95 K | 0.001967 kPa
287.44 K | 0.002063 kPa
287.94 K | 0.002166 kPa and 0.002174 kPa
288.93 K | 0.002392 kPa
289.31 K | 0.002487 kPa
289.43 K | 0.002508 kPa
290.42 K | 0.002759 kPa
290.53 K | 0.002791 kPa
290.92 K | 0.002894 kPa
291.81 K | 0.003154 kPa
291.92 K | 0.003182 kPa
292.42 K | 0.003341 kPa
292.9 K | 0.003501 kPa
293.41 K | 0.00367 kPa
293.91 K | 0.003845 kPa
294.3 K | 0.00399 kPa
294.9 K | 0.004224 kPa
295.4 K | 0.004415 kPa
295.51 K | 0.004442 kPa
295.9 K | 0.004625 kPa
296.39 K | 0.004836 kPa
296.77 K | 0.004989 kPa
297.39 K | 0.005295 kPa
297.89 K | 0.005534 kPa
297.98 K | 0.005566 kPa
298.88 K | 0.006057 kPa
299.38 K | 0.006339 kPa
300.37 K | 0.00692 kPa
300.46 K | 0.006953 kPa
300.87 K | 0.007243 kPa
301.87 K | 0.007893 kPa
302.37 K | 0.008238 kPa
302.84 K | 0.008517 kPa
302.94 K | 0.008627 kPa
303.36 K | 0.008981 kPa
303.76 K | 0.009236 kPa
303.81 K | 0.0093 kPa
303.82 K | 0.009286 kPa and 0.009287 kPa
303.86 K | 0.00937 kPa
304.85 K | 0.0102 kPa and 0.01021 kPa
305.24 K | 0.01047 kPa
305.26 K | 0.01052 kPa
305.29 K | 0.01057 kPa
305.35 K | 0.01065 kPa
305.42 K | 0.01069 kPa
307.68 K | 0.01286 kPa
308.6 K | 0.01393 kPa
308.64 K | 0.014 kPa
310.04 K | 0.0157 kPa
310.06 K | 0.01581 kPa
310.09 K | 0.0158 kPa
310.1 K | 0.01574 kPa
310.14 K | 0.01575 kPa
312.52 K | 0.01912 kPa
313.44 K | 0.02065 kPa
313.47 K | 0.0207 kPa
314.89 K | 0.02316 kPa
314.94 K | 0.0232 kPa
317.35 K | 0.02798 kPa and 0.02794 kPa
317.42 K | 0.02817 kPa
318.24 K | 0.0299 kPa
318.28 K | 0.03012 kPa
319.72 K | 0.0337 kPa
319.78 K | 0.03379 kPa and 0.03376 kPa
322.16 K | 0.04037 kPa
322.2 K | 0.0406 kPa
322.27 K | 0.04082 kPa
323.11 K | 0.04344 kPa
324.57 K | 0.04813 kPa
324.61 K | 0.04845 kPa
324.63 K | 0.04869 kPa
327.04 K | 0.05787 kPa
327.09 K | 0.05806 kPa
327.93 K | 0.06147 kPa
327.97 K | 0.06194 kPa
329.38 K | 0.06819 kPa
329.43 K | 0.06843 kPa
329.46 K | 0.06916 kPa
329.51 K | 0.0691 kPa
330.86 K | 0.07578 kPa
331.89 K | 0.08137 kPa
331.9 K | 0.08129 kPa
331.96 K | 0.08174 kPa
332.78 K | 0.08635 kPa
334.24 K | 0.09568 kPa
334.28 K | 0.09573 kPa
334.33 K | 0.09658 kPa and 0.09631 kPa
334.38 K | 0.09672 kPa
335.68 K | 0.1054 kPa
336.74 K | 0.1133 kPa
336.79 K | 0.1135 kPa
337.62 K | 0.1198 kPa
339.09 K | 0.1322 kPa
339.17 K | 0.1333 kPa
339.24 K | 0.1341 kPa
340.51 K | 0.1449 kPa
340.55 K | 0.1456 kPa
341.5 K | 0.1546 kPa
341.58 K | 0.1555 kPa
341.63 K | 0.1564 kPa
341.66 K | 0.157 kPa
348.04 K | 0.2325 kPa
352.92 K | 0.3135 kPa
357.8 K | 0.4166 kPa
362.67 K | 0.5493 kPa
367.55 K | 0.7207 kPa
372.43 K | 0.9271 kPa
374.86 K | 1.054 kPa
377.3 K | 1.195 kPa

From the NIST ThermoML archive (doi:10.1016/j.jct.2019.01.007)
